Assay results: the supplement of paper PMC12137928
Counter-ions that a name gives are not always drawn.

Key:
[1] = test system: HCT116; settings: 72 h
In short: (§1)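 IC50 and maximal efficacy were derived from four-parameter Hill curve fits. The underlying CellTiter-Glo luminescence was scaled so that vehicle equals 0% and positive control equals -100%, and was then pattern-corrected. HCT116 cells had been seeded in 1536-well plates at 250 per well.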

[2] = test system: HCT116; test: efficacy (maximum % inhibition of viability vs DMSO); higher = more cytotoxic; settings: 72 h
In short: as §1

| Compound | IC50 cell viability ([1]; ICRF193 0 nM) [µM] | IC50 cell viability ([1]; ICRF193 200 nM) [µM] | efficacy ([2]; ICRF193 0 nM) [%] | efficacy ([2]; ICRF193 200 nM) [%] |
| --- | --- | --- | --- | --- |
| Oc1c(I)cc(Cl)c2cccnc12 [Clioquinol] | 29.1 | 29.1 | 99.1 | 98.1 |
| CCCC(=O)O[C@]1(C(=O)CCl)[C@H](C)C[C@@H]2[C@@H]3CCC4=CC(=O)C=C[C@]4(C)[C@]3(F)C(=O)C[C@@]21C [Clobetasone butyrate] | 20.6 | 14.6 | 50.4 | 40.9 |
| NC(=O)C1(N2CCCCC2)CCN(CCCN2c3ccccc3CCc3ccc(Cl)cc32)CC1 [Clocapramine] | 23.1 | 18.3 | 117 | 105 |
| Nc1nc(Cl)nc2c1ncn2[C@@H]1O[C@H](CO)[C@@H](O)[C@@H]1F [Clofarabine] | 0.146 | 0.231 | 45.9 | 65.2 |
| O=C(Nc1ccc(Cl)cc1)Nc1ccc(Cl)c(C(F)(F)F)c1 [Cloflucarban] | 5.8 | 5.8 | 98.6 | 98.1 |
| CCN(CC)CCOc1ccc(C(=C(Cl)c2ccccc2)c2ccccc2)cc1 [Clomifene citrate] | 18.3 | 20.6 | 110 | 120 |
| CN(C)CCCN1c2ccccc2CCc2ccc(Cl)cc21 [Clomipramine hydrochloride] | 18.3 | 20.6 | 74.9 | 90.5 |
| Clc1cccc(Cl)c1NC1=NCCN1 [Clonidine] | > 45.8 | 4.11 |  | 68.5 |
| COC(=O)[C@H](c1ccccc1Cl)N1CCc2sccc2C1 [Clopidogrel bisulfate] | 18.3 | 23.1 | 67.2 | 76.8 |
| Cc1cc(C(C#N)c2ccc(Cl)cc2)c(Cl)cc1NC(=O)c1cc(I)cc(I)c1O (configuration not stated) [Closantel] | 9.2 | 10.3 | 70.3 | 77.1 |
| Clc1ccccc1C(c1ccccc1)(c1ccccc1)n1ccnc1 [Clotrimazole] | 18.3 | 16.4 | 102 | 94.7 |
| CC(C)c1nc(CN(C)C(=O)N[C@@H](CCN2CCOCC2)C(=O)N[C@H](CC[C@H](Cc2ccccc2)NC(=O)OCc2cncs2)Cc2ccccc2)cs1 [Cobicistat] | 14.6 | > 45.8 | 40.1 |  |
| O=C(c1ccc(F)c(F)c1Nc1ccc(I)cc1F)N1CC(O)([C@@H]2CCCCN2)C1 [Cobimetinib] | 18.3 | 9.2 | 55.7 | 75.9 |
| COc1cc2c(c(OC)c1OC)-c1ccc(OC)c(=O)cc1[C@@H](NC(C)=O)CC2 [Colchicine] | 0.0326 | 0.0326 | 74 | 69.5 |
| Cc1nc2c([nH]1)-c1ccccc1N(C(=O)c1ccc(NC(=O)c3ccccc3-c3ccccc3)cc1)CC2 [Conivaptan hydrochloride] | > 45.8 | 29.1 |  | 60 |
| COc1c(OCCCN2CCOCC2)ccc2c1N=C(NC(=O)c1cnc(N)nc1)N1CCN=C21 [Copanlisib] | 0.944 | 0.473 | 59.1 | 65.9 |
| CN(C)CCC=C1c2ccccc2C=Cc2ccccc21 [Cyclobenzaprine hydrochloride] | > 45.8 | 20.6 |  | 52.3 |
| C[C@H]1O[C@@H](O[C@H]2[C@@H](O)C[C@H](O[C@H]3[C@@H](O)C[C@H](O[C@H]4CC[C@@]5(C)[C@H](CC[C@@H]6[C@@H]5CC[C@]5(C)[C@@H](C7=CC(=O)OC7)CC[C@]65O)C4)O[C@@H]3C)O[C@@H]2C)C[C@H](O)[C@@H]1O [DIGITOXIN] | 0.0651 | > 45.8 | 73.1 |  |
| CO[C@H]1C[C@H](O[C@H]2[C@H](C)O[C@@H](O[C@@H]3/C(C)=C/C[C@@H]4C[C@@H](C[C@]5(C=C[C@H](C)[C@@H](C6CCCCC6)O5)O4)OC(=O)[C@@H]4C=C(C)[C@@H](O)[C@H]5OC/C(=C\C=C\[C@@H]3C)[C@]54O)C[C@@H]2OC)O[C@@H](C)[C@@H]1O [DORAMECTIN] | 13 | 7.3 | 112 | 106 |
| CC(C)(C)c1nc(-c2cccc(NS(=O)(=O)c3c(F)cccc3F)c2F)c(-c2ccnc(N)n2)s1 [Dabrafenib] | 23.1 | 9.2 | 46.2 | 81.6 |
| CN(C)/N=N/c1[nH]cnc1C(N)=O [Dacarbazine] | 7.3 | 16.4 | 66.6 | 91.9 |
| COC(=O)N[C@H](C(=O)N1CCC[C@H]1c1ncc(-c2ccc(-c3ccc(-c4cnc([C@@H]5CCCN5C(=O)[C@@H](NC(=O)OC)C(C)C)[nH]4)cc3)cc2)[nH]1)C(C)C [Daclatasvir dihydrochloride] | 29.1 | 29.1 | 103 | 101 |
| C#C[C@]1(O)CC[C@H]2[C@@H]3CCC4=Cc5oncc5C[C@]4(C)[C@H]3CC[C@@]21C [Danazol] | > 45.8 | 20.6 |  | 47.9 |
| CN(C)[C@@H](CCOc1cccc2ccccc12)c1ccccc1 [Dapoxetine] | 29.1 | 23.1 | 71.4 | 70.9 |
| Cc1nc(Nc2ncc(C(=O)Nc3c(C)cccc3Cl)s2)cc(N2CCN(CCO)CC2)n1 [Dasatinib] | 29.1 | 23.1 | 74.6 | 105 |

| Compound | IC50 cell viability ([1]; ICRF193 0 nM) [µM] | IC50 cell viability ([1]; ICRF193 200 nM) [µM] | efficacy ([2]; ICRF193 0 nM) [%] | efficacy ([2]; ICRF193 200 nM) [%] |
| --- | --- | --- | --- | --- |
| COc1cccc2c1C(=O)c1c(O)c3c(c(O)c1C2=O)C[C@@](O)(C(C)=O)C[C@@H]3O[C@H]1C[C@H](N)[C@H](O)[C@H](C)O1 [Daunorubicin] | 0.461 | 0.0517 | 102 | 83.8 |
| O=C(O)c1ccc(-n2nc(-c3ccccc3O)nc2-c2ccccc2O)cc1 [Deferasirox] | 18.3 | 29.1 | 99.7 | 109 |
| CC(=O)N(O)CCCCCNC(=O)CCC(=O)N(O)CCCCCNC(=O)CCC(=O)N(O)CCCCCN [Deferoxamine mesylate] | 29.1 | 29.1 | 99.1 | 105 |
| CN(C)[C@@H]1C(O)=C(C(N)=O)C(=O)[C@@]2(O)C(O)=C3C(=O)c4c(O)ccc(Cl)c4[C@@H](O)[C@H]3C[C@@H]12 [Demeclocycline hydrochloride] | > 45.8 | 16.4 |  | 40 |
| Cc1cc(N)c2ccccc2[n+]1CCCCCCCCCC[n+]1c(C)cc(N)c2ccccc21 [Dequalinium dichloride] | > 45.8 | 2.98 |  | 55.3 |
| COC(=O)[C@H]1[C@H]2C[C@@H]3c4[nH]c5ccccc5c4CCN3C[C@H]2C[C@@H](OC(=O)c2cc(OC)c(OC)c(OC)c2)[C@@H]1OC [Deserpidine] | 29.1 | 25.9 | 59.1 | 48.2 |
| CNCCCN1c2ccccc2CCc2ccccc21 [Desipramine hydrochloride] | > 45.8 | 18.3 |  | 47.5 |
| C[C@H]1O[C@@H](O[C@H]2CC[C@@]3(C)[C@H](CC[C@@H]4[C@@H]3C[C@@H](O)[C@]3(C)[C@@H](C5=CC(=O)OC5)CC[C@]43O)C2)C[C@H](O)[C@@H]1O[C@H]1C[C@H](O)[C@H](O[C@H]2C[C@H](O)[C@H](O[C@@H]3O[C@H](CO)[C@@H](O)[C@H](O)[C@H]3O)[C@@H](C)O2)[C@@H](C)O1 [Deslanoside] | 0.231 | 0.231 | 85.6 | 78.1 |
| N=C(N)c1ccc(OCCCOc2ccc(C(=N)N)cc2Br)c(Br)c1 [Dibromopropamidine dihydrochloride] | > 45.8 | 18.3 |  | 51.6 |
| Oc1ccc(Cl)cc1Cc1cc(Cl)ccc1O [Dichlorophen] | 10.3 | 8.2 | 106 | 99.9 |
| N#CC(c1ccc(Cl)cc1)c1c(Cl)cc(-n2ncc(=O)[nH]c2=O)cc1Cl (configuration not stated) [Diclazuril] | 20.6 | 20.6 | 46.5 | 56.7 |
| C/C=C(/C(=C/C)c1ccc(O)cc1)c1ccc(O)cc1 [Dienestrol] | 29.1 | > 45.8 | 74.2 |  |
| CC/C(=C(/CC)c1ccc(O)cc1)c1ccc(O)cc1 [Diethylstilbestrol] | 18.3 | 23.1 | 52.4 | 47.5 |
| CC(C(O)c1ccccc1)N(C)CCOC(c1ccccc1)c1ccccc1 (configuration not stated) [Difeterol] | 29.1 | 23.1 | 83 | 85.3 |
| O=c1c(C2CC(c3ccc(-c4ccc(Br)cc4)cc3)Cc3ccccc32)c(O)sc2ccccc12 (configuration not stated) [Difethialone] | 23.1 | 18.3 | 46.7 | 68.3 |
| CC(=O)O[C@H]1C[C@H](O[C@H]2[C@@H](O)C[C@H](O[C@H]3[C@@H](O)C[C@H](O[C@H]4CC[C@@]5(C)[C@H](CC[C@@H]6[C@@H]5CC[C@]5(C)[C@@H](C7=CC(=O)OC7)CC[C@]65O)C4)O[C@@H]3C)O[C@@H]2C)O[C@H](C)[C@H]1O [Digitoxin 3'''-Acetate] | 0.231 | 0.116 | 75 | 87.8 |
| C[C@H]1O[C@@H](O[C@H]2[C@@H](O)C[C@H](O[C@H]3[C@@H](O)C[C@H](O[C@H]4CC[C@@]5(C)[C@H](CC[C@@H]6[C@@H]5C[C@@H](O)[C@]5(C)[C@@H](C7=CC(=O)OC7)CC[C@]65O)C4)O[C@@H]3C)O[C@@H]2C)C[C@H](O)[C@@H]1O [Digoxin] | 0.183 | 0.146 | 76.2 | 83.8 |
| COc1cc(C(=O)OCCCN2CCCN(CCCOC(=O)c3cc(OC)c(OC)c(OC)c3)CC2)cc(OC)c1OC [Dilazep] | > 45.8 | 29.1 |  | 51.1 |
| O=c1c(-c2ccccc2)c1-c1ccccc1 [Diphenylcyclopropenone] | 29.1 | > 45.8 | 100 |  |
| [O-][n+]1ccccc1SSc1cccc[n+]1[O-] [Dipyrithione] | 1.42 | 1.27 | 83.9 | 74.7 |
| CCN1\C(=C/C=C/C=C/c2sc3ccccc3[n+]2CC)Sc2ccccc21 [Dithiazanine chloride] | 23.1 | 20.6 | 96.7 | 99 |
| CC(CCc1ccc(O)cc1)NCCc1ccc(O)c(O)c1 (configuration not stated) [Dobutamine] | > 45.8 | 23.1 |  | 83.3 |
| CC(=O)O[C@@]12CO[C@@H]1C[C@H](O)[C@@]1(C)C(=O)[C@H](O)C3=C(C)[C@@H](OC(=O)[C@H](O)[C@@H](NC(=O)OC(C)(C)C)c4ccccc4)C[C@@](O)([C@@H](OC(=O)c4ccccc4)[C@H]21)C3(C)C [Docetaxel] | 0.0103 | 0.0146 | 60.8 | 56.5 |
| CCCCCCCCCCCC[N+](C)(C)CCOc1ccccc1 [Domiphen bromide] | 10.3 | 8.2 | 101 | 90.4 |
